Reference: patent US12178842B2, “PCSK9 antagonist compounds” (MERCK SHARP & DOHME LLC, priority 2019, dated 2024)

Tests used:
Assay type in all cases: binding
PCSK9 [1] = biological target: T1, PCSK9 (Homo sapiens, UniProt Q8NBP7); assay: PCSK9 Alexa FRET Standard TR-FRET assay; conditions: Ki calculated from IC50 and KD of AF cyclic peptide Reagent A; 0.5 nM PCSK9, 20 nM AF cyclic peptide; read-out: Alexa FRET Stdt TR-FRET
T1 construct: biotin (biotinylated); purchased
Method in brief: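 Ki (nM) calculated from sigmoidal-fit IC50 and the KD of an AlexaFluor-labelled cyclic peptide (20 nM final) competing with compound for biotinylated PCSK9 (0.5 nM) bound to Eu-streptavidin (1.25 nM). Incubation at least 2 h, room temperature, HEPES pH 7.4 buffer with CaCl2; falling europium counts flag false positives.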

PCSK9 [2] = biological target: T1, PCSK9; assay: PCSK9 Alexa FRET Plus TR-FRET assay
Method in brief: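 Compounds displace an AlexaFluor-labeled cyclic peptide (1920 nM solution, not final) from europium-tagged PCSK9; time-resolved FRET read after ≥2 h at room temperature. Ki derived from fitted IC50 and peptide KD, europium donor counts monitored to detect compound interference, results given in nanomolar.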

PCSK9 [3] = biological target: T1, PCSK9; assay: PCSK9 Alexa FRET Ultra TR-FRET assay
Method in brief: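 TR-FRET read after ≥2 h at room temperature between europium-PCSK9 and an AlexaFluor cyclic peptide, stated as a 1920 nM solution. Sigmoidal nonlinear regression gives IC50, and Ki in nM follows from the peptide KD; europium counts are monitored for compound interference.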

[4] = Ki calculated from IC50 and KD of AF cyclic peptide Reagent B, 0.5 nM PCSK9, 960 nM AF cyclic peptide, read-out: Alexa FRET Plus TR-FRET
[5] = Ki Ultra, calculated from IC50 and KD of AF cyclic peptide, 0.5 nM PCSK9, 960 nM AF cyclic peptide, read-out: Alexa FRET Ultra TR-FRET

T1 sequence (Q8NBP7 153-692): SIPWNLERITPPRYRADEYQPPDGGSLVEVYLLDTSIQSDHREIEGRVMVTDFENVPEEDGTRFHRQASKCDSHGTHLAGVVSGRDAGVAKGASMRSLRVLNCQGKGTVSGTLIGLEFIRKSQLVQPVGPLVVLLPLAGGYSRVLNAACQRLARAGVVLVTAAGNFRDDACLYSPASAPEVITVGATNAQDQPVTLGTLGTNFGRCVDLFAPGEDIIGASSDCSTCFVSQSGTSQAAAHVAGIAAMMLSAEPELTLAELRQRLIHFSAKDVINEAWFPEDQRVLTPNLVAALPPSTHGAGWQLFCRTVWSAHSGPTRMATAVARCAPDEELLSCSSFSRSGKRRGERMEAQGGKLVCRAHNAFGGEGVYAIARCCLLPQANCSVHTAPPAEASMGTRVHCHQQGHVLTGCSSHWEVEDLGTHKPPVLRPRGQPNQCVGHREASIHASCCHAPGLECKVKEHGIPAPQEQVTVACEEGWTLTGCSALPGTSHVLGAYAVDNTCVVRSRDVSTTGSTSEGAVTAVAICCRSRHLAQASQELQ

| SMILES | Ki (PCSK9 [1]) | Ki (PCSK9 [2]; [4]) | Ki (PCSK9 [3]; [5]) | Ki (PCSK9 [2]) | Ki (PCSK9 [3]) |
| --- | --- | --- | --- | --- | --- |
| COc1ccc(C[C@@H]2NC(=O)[C@H]([C@@H](C)O)NC(=O)[C@@H]3[C@@H]4CCN3C(=O)[C@@H]3Cc5cn(c6ccc(F)cc56)CCCCCCN(Cc5ccc(cc5)CCNC(=O)[C@]5(C)CCCN5C2=O)C(=O)CCC(=O)N[C@@H](C)C(=O)N[C@H](CNC(=O)[C@@H](CCCC[N+](C)(C)C)NC(=O)COCCOCCNC(=O)COCCOCCNC(=O)CC[C@H](NC(=O)CC[C@H](NC(=O)CCCCCCCCCCCCCCCCC(=O)O)C(=O)O)C(=O)O)C(=O)N[C@@H](Cc2cccc(c2)CNC(=O)CO4)C(=O)N3)cc1 [Ex-55] | < 1.26 nM | 0.012 nM | 0.01 nM | – | – |
| COc1ccc(C[C@@H]2NC(=O)[C@H]([C@@H](C)O)NC(=O)[C@@H]3[C@@H]4CCN3C(=O)[C@@H]3Cc5cn(c6ccc(F)cc56)CCCCCCN(Cc5ccc(cc5)CCNC(=O)[C@]5(C)CCCN5C2=O)C(=O)CCC(=O)N[C@@H](C)C(=O)N[C@H](CNC(=O)CCOCCOCC[N+](C)(C)CCNC(=O)COCCOCCNC(=O)COCCOCCNC(=O)CC[C@H](NC(=O)CCCCCCCCCCCCCCC(=O)N[C@@H](CC(=O)O)C(=O)O)C(=O)O)C(=O)N[C@@H](Cc2cccc(c2)CNC(=O)CO4)C(=O)N3)cc1 [Ex-56] | < 1.26 nM | < 0.006 nM | 0.004 nM | – | – |
| COc1ccc(C[C@@H]2NC(=O)[C@H]([C@@H](C)O)NC(=O)[C@@H]3[C@@H]4CCN3C(=O)[C@@H]3Cc5cn(c6ccc(F)cc56)CCCCCCN(Cc5ccc(cc5)CCNC(=O)[C@]5(C)CCCN5C2=O)C(=O)CCC(=O)N[C@@H](CNC(=O)CCOCCOCC[N+](C)(C)CCNC(=O)COCCOCCNC(=O)COCCOCCNC(=O)CC[C@H](NC(=O)CCCCCCCCCCCCCCC(=O)O)C(=O)O)C(=O)N[C@H](C)C(=O)N[C@@H](Cc2cccc(c2)CNC(=O)CO4)C(=O)N3)cc1 [Ex-57] | < 1.26 nM | 0.009 nM | 0.034 nM | – | – |
| COc1ccc(C[C@@H]2NC(=O)[C@H]([C@@H](C)O)NC(=O)[C@@H]3[C@@H]4CCN3C(=O)[C@@H]3Cc5cn(c6ccc(F)cc56)CCCCCCN(Cc5ccc(cc5)CCNC(=O)[C@]5(C)CCCN5C2=O)C(=O)CCC(=O)N[C@@H](CNC(=O)CCOCCOCC[N+](C)(C)CCNC(=O)COCCOCCNC(=O)COCCOCCNC(=O)CC[C@H](NC(=O)CC[C@H](NC(=O)CCCCCCCCCCCCCCCCC(=O)O)C(=O)O)C(=O)O)C(=O)N[C@H](C)C(=O)N[C@@H](Cc2cccc(c2)CNC(=O)CO4)C(=O)N3)cc1 [Ex-58] | < 1.26 nM | 0.018 nM | 0.079 nM | – | – |
| COc1ccc(C[C@@H]2NC(=O)[C@H]([C@@H](C)O)NC(=O)[C@@H]3[C@@H]4CCN3C(=O)[C@@H]3Cc5cn(c6ccc(F)cc56)CCCCCCN(Cc5ccc(cc5)CCNC(=O)[C@]5(C)CCCN5C2=O)C(=O)CCC(=O)N[C@@H](CNC(=O)CCOCCOCC[N+](C)(C)CCNC(=O)COCCOCCNC(=O)COCCOCCNC(=O)CC[C@@H](NC(=O)CC[C@@H](NC(=O)CCCCCCCCCCCCCCCCC(=O)O)C(=O)O)C(=O)O)C(=O)N[C@H](C)C(=O)N[C@@H](Cc2cccc(c2)CNC(=O)CO4)C(=O)N3)cc1 [Ex-59] | < 1.26 nM | 0.02 nM | 0.101 nM | – | – |
| COc1ccc(C[C@@H]2NC(=O)[C@H]([C@@H](C)O)NC(=O)[C@@H]3[C@@H]4CCN3C(=O)[C@@H]3Cc5cn(c6ccc(F)cc56)CCCCCCN(Cc5ccc(cc5)CCNC(=O)[C@]5(C)CCCN5C2=O)C(=O)CCC(=O)N[C@@H](CNC(=O)COCCOCC[N+](C)(C)CCOCCNC(=O)COCCOCCNC(=O)COCCOCCNC(=O)CC[C@H](NC(=O)CC[C@H](NC(=O)CCCCCCCCCCCCCCC(=O)O)C(=O)O)C(=O)O)C(=O)N[C@H](C)C(=O)N[C@@H](Cc2cccc(c2)CNC(=O)CO4)C(=O)N3)cc1 [Ex-60] | < 1.26 nM | 0.008 nM | 0.062 nM | – | – |
| COc1ccc(C[C@@H]2NC(=O)[C@H]([C@@H](C)O)NC(=O)[C@@H]3[C@@H]4CCN3C(=O)[C@@H]3Cc5cn(c6ccc(F)cc56)CCCCCCN(Cc5ccc(cc5)CCNC(=O)[C@]5(C)CCCN5C2=O)C(=O)CCC(=O)N[C@@H](CNC(=O)COCCOCCNC(=O)CC[C@H](NC(=O)CCOCCOCC[N+](C)(C)CCNC(=O)COCCOCCNC(=O)COCCOCCNC(=O)CC[C@H](NC(=O)CCCCCCCCCCCCCCCCC(=O)O)C(=O)O)C(=O)O)C(=O)N[C@H](C)C(=O)N[C@@H](Cc2cccc(c2)CNC(=O)CO4)C(=O)N3)cc1 [Ex-61] | < 1.26 nM | 0.049 nM | 0.131 nM | – | – |
| COc1ccc(C[C@@H]2NC(=O)[C@H]([C@@H](C)O)NC(=O)[C@@H]3[C@@H]4CCN3C(=O)[C@@H]3Cc5cn(c6ccc(F)cc56)CCCCCCN(Cc5ccc(cc5)CCNC(=O)[C@]5(C)CCCN5C2=O)C(=O)CCC(=O)N[C@@H](CNC(=O)COCCOCC[N+](C)(C)CCNC(=O)COCCOCCNC(=O)COCCOCCNC(=O)CC[C@H](NC(=O)CCCCCCCCOCCCCCCCCC(=O)O)C(=O)O)C(=O)N[C@H](C)C(=O)N[C@@H](Cc2cccc(c2)CNC(=O)CO4)C(=O)N3)cc1 [Ex-62] | < 1.26 nM | – | – | < 0.006 nM | 0.038 nM |
| COc1ccc(C[C@@H]2NC(=O)[C@H]([C@@H](C)O)NC(=O)[C@@H]3[C@@H]4CCN3C(=O)[C@@H]3Cc5cn(c6ccc(F)cc56)CCCCCCN(Cc5ccc(cc5)CCNC(=O)[C@]5(C)CCCN5C2=O)C(=O)CCC(=O)N[C@@H](CNC(=O)COCCOCCNC(=O)COCCOCCNC(=O)CC[C@H](NC(=O)CCCCCCCCCCCCCCCCC(=O)O)C(=O)O)C(=O)N[C@H](CNC(=O)CCOCCOCC[N+](C)(C)C)C(=O)N[C@@H](Cc2cccc(c2)CNC(=O)CO4)C(=O)N3)cc1 [Ex-63] | < 1.26 nM | < 0.006 nM | 0.045 nM | – | – |
| COc1ccc(C[C@@H]2NC(=O)[C@H]([C@@H](C)O)NC(=O)[C@@H]3[C@@H]4CCN3C(=O)[C@@H]3Cc5cn(c6ccc(F)cc56)CCCCCCN(Cc5ccc(cc5)CCNC(=O)[C@]5(C)CCCN5C2=O)C(=O)CCC(=O)N[C@@H](CNC(=O)CCOCCOCC[N+](C)(C)CCNC(=O)COCCOCCNC(=O)COCCOCCNC(=O)CC[C@H](NC(=O)CCCCCCCCCCCCCCC(=O)O)C(=O)O)C(=O)N[C@H](CNC(=O)CCOCCOCC[N+](C)(C)C)C(=O)N[C@@H](Cc2cccc(c2)CNC(=O)CO4)C(=O)N3)cc1 [Ex-64] | < 1.26 nM | 0.012 nM | 0.028 nM | – | – |
| COc1ccc(C[C@@H]2NC(=O)[C@H]([C@@H](C)O)NC(=O)[C@@H]3[C@@H]4CCN3C(=O)[C@@H]3Cc5cn(c6ccc(F)cc56)CCCCCCN(Cc5ccc(cc5)CCNC(=O)[C@]5(C)CCCN5C2=O)C(=O)CCC(=O)N[C@@H](CNC(=O)COCCOCC[N+](C)(C)CCNC(=O)COCCOCCNC(=O)COCCOCCNC(=O)CC[C@H](NC(=O)CCCCCCCCCCCCCCCCC(=O)O)C(=O)O)C(=O)N[C@H](CNC(=O)CCOCCOCC[N+](C)(C)C)C(=O)N[C@@H](Cc2cccc(c2)CNC(=O)CO4)C(=O)N3)cc1 [Ex-65] | < 1.26 nM | < 0.006 nM | 0.024 nM | – | – |
| COc1ccc(C[C@@H]2NC(=O)[C@H]([C@@H](C)O)NC(=O)[C@@H]3[C@@H]4CCN3C(=O)[C@@H]3Cc5cn(c6ccc(F)cc56)CCCCCCN(Cc5ccc(cc5)CCNC(=O)[C@]5(C)CCCN5C2=O)C(=O)CCC(=O)N[C@@H](CNC(=O)COCCOCC[N+](C)(C)CCOCCNC(=O)COCCOCCNC(=O)COCCOCCNC(=O)CC[C@H](NC(=O)CC[C@H](NC(=O)CCCCCCCCCCCCCCC(=O)O)C(=O)O)C(=O)O)C(=O)N[C@H](CNC(=O)CCOCCOCC[N+](C)(C)C)C(=O)N[C@@H](Cc2cccc(c2)CNC(=O)CO4)C(=O)N3)cc1 [Ex-66] | < 1.26 nM | 0.007 nM | 0.027 nM | – | – |
